Measurements published in patent US6590140B1, “Metal-regulated transporters and uses therefor” (Trustees of Dartmouth College, priority 1996, dated 2003).

How the values were obtained:
[1] = molecular target: T1, ZIP3 (Arabidopsis thaliana, UniProt Q9SLG3); assay: Zn uptake by ZHY3 containing ZIP3; assay type: cell-based; conditions: ZIP3 containing ZHY3 cells, 5 minute time course using 10 mM Zn
T1 construct: expressed in transfected cells; host or cells: S. cerevisiae ZHY3 (zrt1::LEU2 zrt2::HIS3) with an Arabidopsis cDNA clone in pFL61
T1 sequence (Q9SLG3 26-339): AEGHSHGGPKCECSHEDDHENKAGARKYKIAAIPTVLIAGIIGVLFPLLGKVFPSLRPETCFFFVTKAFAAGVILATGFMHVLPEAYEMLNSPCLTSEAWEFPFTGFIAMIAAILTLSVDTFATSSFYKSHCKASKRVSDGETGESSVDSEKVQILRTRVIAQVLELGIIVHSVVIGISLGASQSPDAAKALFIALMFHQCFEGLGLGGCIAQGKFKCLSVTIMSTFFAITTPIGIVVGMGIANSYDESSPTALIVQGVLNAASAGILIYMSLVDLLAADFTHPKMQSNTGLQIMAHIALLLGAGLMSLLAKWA
Method: (§1) Zinc uptake assays were performed as described previously for iron uptake (Eide et al. (1992) J. Biol. Chem. 267:20774-20781) except that ^65ZnCl2 (Amersham) and LZM-EDTA were substituted for ^59FeCI3 and LIM-EDTA, respectively. Cells were incubated for 5 minutes in LZM-EDTA plus the indicated concentration of ^65Zn, collected on glass fiber filters (Schleicher and Schuell), washed with 10 ml ice-cold SSW (1 mM EDTA, 20 mM trisodium citrate, 1 mM KH2PO4, 1 mM CaCl2, 5 mM MgSO4, 1 mM NaCl pH 4.2), and cell-associated radioactivity was measured by liquid scintillation counting. […] Michaelis-Menten kinetic values were determined using […] software (Intellikinetics, Princeton, N.J.). […] The statistical significance of the differences of values relative to controls was determined with one-way analysis of variance (ANOVA) followed by a Dunnett multiple comparison test. β-galactosidase activity was assayed in cells harvested at an OD600 of 0.5-2.0 as described by Guarente (Guarente, L. (1983) Methods Enzymol. 101:181-191) and activity is expressed as the change in absorbance at 420 nm×1000 divided by (min×ml of culture used×OD600 of the culture). Cell-associated zinc was measured in parallel cultures supplemented with tracer amounts of ^65Zn (10 μM) and nonradioactive zinc to the indicated final concentration. […]

[2] = system: ZRT1 promoter; assay: ZRT1-lacZ fusion β-galactosidase assay; assay type: cell-based, Saccharomyces cerevisiae; conditions: LZM-EDTA, 16 hours
Method: Zinc uptake assays were performed as described previously for iron uptake (Eide et al. (1992) J. Biol. Chem. 267:20774-20781) except that ^65ZnCl2 (Amersham) and LZM-EDTA were substituted for ^59FeCI3 and LIM-EDTA, respectively. Cells were incubated for 5 minutes in LZM-EDTA plus the indicated concentration of ^65Zn, collected on glass fiber filters (Schleicher and Schuell), washed with 10 ml ice-cold SSW (1 mM EDTA, 20 mM trisodium citrate, 1 mM KH2PO4, 1 mM CaCl2, 5 mM MgSO4, 1 mM NaCl pH 4.2), and cell-associated radioactivity was measured by liquid scintillation counting. Cells were starved for glucose by incubating them in LZM-EDTA prepared without glucose for one hour at 30° C. prior to assay. Michaelis-Menten kinetic values were determined using […] software (Intellikinetics, Princeton, N.J.). Stock solutions of the chloride salts of Co, Cu, Mg, Mn, and Ni were prepared in distilled water at a concentration of 100 mM. The nonradioactive ZnCl2 stock was prepared at 100 mM in 0.02 N HCl and the FeCl3 stock was prepared at 50 mM in 0.1 N HCl. The statistical significance of the differences of values relative to controls was determined with one-way analysis of variance (ANOVA) followed by a Dunnett multiple comparison test. β-galactosidase activity was assayed in cells harvested at an OD600 of 0.5-2.0 as described by Guarente (Guarente, L. (1983) Methods Enzymol. 101:181-191) and activity is expressed as the change in absorbance at 420 nm×1000 divided by (min×ml of culture used×OD600 of the culture). Cell-associated zinc was measured in parallel cultures supplemented with tracer amounts of ^65Zn (10 μM) and nonradioactive zinc to the indicated final concentration. Aliquots (0.5 ml) were filtered, washed with 10 ml ice-cold SSW, and radioactivity measured by liquid scintillation.
The effects of the zrt2 mutation on the regulation of the ZRT1 gene was also examined. […] Furthermore, cell-associated zinc levels are much lower in the zrt1 mutant grown in zinc-limiting conditions. At higher concentrations of extracellular zinc, however, these levels increased to the wild type levels. It was proposed that this accumulation was the result of zinc uptake by the low affinity system. To test this hypothesis and determine the effect of the zrt2 mutation on the pool of intracellular zinc that regulates ZRT1 gene expression, β-galactosidase activity from the ZRT1-lacZ fusion in wild type, zrt1, zrt2, and zrt1zrt2 mutant strains grown in media supplemented with a broad range of zinc concentrations was measured. […] These values are also plotted against the calculated free zinc concentration ([Zn]F). […]

[3] = system: zrt1 strain; assay: Cell-associated zinc, zrt1 strain; assay type: cell-based, Saccharomyces cerevisiae
Method: as §1

## [Zn+2] [zinc]
[1]
  Zn uptake rate: 134 fmol/min/10^6 cells
[2]; zrt1 mutant
  calculated free zinc [Zn]F at which β-galactosidase activity decreased to its minimal level: ~0.12 µM
  total zinc at which β-galactosidase activity decreased to its minimal level: 10 µM
[2]; zrt1zrt2 mutant
  calculated free zinc [Zn]F at which ZRT1-lacZ expression was down-regulated: ~2.4 µM
  total zinc concentration at which ZRT1-lacZ expression was down-regulated: ≥ 200 µM
[3]; 10 μM total zinc
  cell-associated zinc: 133±12 pmol/10^6 cells
[3]; 1000 μM total zinc
  cell-associated zinc: 168±14 pmol/10^6 cells
